In patent US9682938B2, “Pyrazolone derivatives as nitroxyl donors” (Cardioxyl Pharmaceuticals, Inc., priority 2014, dated 2017) one finds half-life data, which are given here for 11 compounds.

SMILES strings stand for the structures.

What all share (assay type): in vitro ADME
Series [1] can be described thus: In vitro plasma stability, human plasma. The following applies: male, pH 7.4, 5 μM, 37° C., sampling 0-360 minutes, read-out: T1/2 Human. A digest of the protocol: (§1)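 Pooled plasma at pH 7.4 with sodium heparin or citrate anticoagulant; compound at 5 μM, 37° C with shaking, triplicate samples at 0–360 min. Quenched in acetonitrile/1% formic acid with internal standard; LC-MS/MS peak-area ratios without standard curve; T1/2 from percent remaining.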

Series [2] can be described thus: In vitro plasma stability, dog plasma. Conditions: male, pH 7.4, 5 μM, 37° C., sampling 0-360 minutes, read-out: T1/2 Dog. A digest of the protocol:
as §1

A short description of series [3]: In vitro plasma stability, rat plasma. The following applies: male, pH 7.4, 5 μM, 37° C., sampling 0-360 minutes, read-out: T1/2 Rat. Summed up:
as §1

For the compound `CCOC1=NN(C)C(=O)C1(NO)/C(C)=N/OCc1ccccc1` (stereo not drawn) [Compound 125, 4-[1-[(Benzyloxy)imino]ethyl]-3-ethoxy-4-(hydroxyamino)-1-methyl-4,5-dihydro-1H-pyrazol-5-one], the half-life at 5 μM in series [1] was found to be 10 min; in series [2] it was 13 min; in series [3], 15 min.
Consider `C/C(=N\Oc1ccc(Br)cc1)C1(NO)C(=O)N(C)N=C1C(C)(C)C` (stereo not drawn) [Compound 118, 4-[1-[(4-Bromophenoxy)imino]ethyl]-3-tert-butyl-4-(hydroxyamino)-1-methyl-4,5-dihydro-1H-pyrazol-5-one], for which the half-life at 5 μM in series [1] was 5 min; in series [2], 24 min; in series [3], 22 min.
For `CO/N=C(\C)C1(NO)C(=O)NN=C1C(C)(C)C` (stereo not drawn) [Compound 131, 3-tert-Butyl-4-(hydroxyamino)-4-[1-(methoxyimino)ethyl]-4,5-dihydro-1H-pyrazol-5-one] the same measures were 15 min, 7 min and 24 min.
Take `CO/N=C(\C)C1(NO)C(=O)N(C)N=C1c1ccc(OC)cc1` (stereo not drawn) [Compound 107, 4-(Hydroxyamino)-4-[1-(methoxyimino)ethyl]-3-(4-methoxyphenyl)-1-methyl-4,5-dihydro-1H-pyrazol-5-one]: the results for the half-life at 5 μM in series [1], in series [2] and in series [3] were 18 min, 10 min and 49 min, respectively.
On the same counts, the results for `CN1N=C(c2ccc(F)cc2Cl)C(C)(NO)C1=O` (stereo not drawn) [Compound 12, 5-(2-chloro-4-fluorophenyl)-4-(hydroxyamino)-2,4-dimethyl-2,4-dihydro-3H-pyrazol-3-one] are 18 min, 28 min and 20 min.
For `CN1N=C(C(C)(C)C)C(NO)(c2ccc(S(=O)(=O)N(C)C)cc2)C1=O` (stereo not drawn) [Compound 122, 4-[3-tert-Butyl-4-(hydroxyamino)-1-methyl-5-oxo-4,5-dihydro-1H-pyrazol-4-yl]-N,N-dimethylbenzene-1-sulfonamide] the same measures were 31 min, 35 min and 34 min.
On the same counts, the results for `CC1=NN(C)C(=O)C1(NO)c1ccc(S(C)(=O)=O)cc1` (stereo not drawn) [Compound 37, 4-(hydroxyamino)-2,5-dimethyl-4-(4-(methylsulfonyl)phenyl)-2,4-dihydro-3H-pyrazol-3-one] are 8 min, 3 min and 5 min.
Regarding `CC1=NN(C)C(=O)C1(NO)c1ccc(Cl)cc1` (stereo not drawn) [Compound 66, 4-(4-chlorophenyl)-4-(hydroxyamino)-1,3-dimethyl-1H-pyrazol-5(4H)-one], the half-life at 5 μM in series [1] amounted to 10 min; in series [2] it was 7 min; in series [3], 7 min.
As to `CC1=NN(C)C(=O)C1(NO)c1cccc(C)c1` (stereo not drawn) [Compound 98, 4-(Hydroxyamino)-1,3-dimethyl-4-(3-methylphenyl)-4,5-dihydro-1H-pyrazol-5-one], the half-life at 5 μM in series [1] was 12 min; in series [2], 16 min; in series [3], 11 min.
On the same counts, the results for `CCOC1=NN(C)C(=O)C1(NO)/C(C)=N/OC` (stereo not drawn) [Compound 126, 3-Ethoxy-4-(hydroxyamino)-4-[1-(methoxyimino)ethyl]-1-methyl-4,5-dihydro-1H-pyrazol-5-one] are 18 min, 30 min and 18 min.
For `CN1N=C(c2ccc(C(=O)N3CCOCC3)cc2)C(C)(NO)C1=O` (stereo not drawn) [Compound 81, 4-(Hydroxyamino)-1,4-dimethyl-3-[4-(morpholine-4-carbonyl)phenyl]-4,5-dihydro-1H-pyrazol-5-one] the same measures were 76 min, 84 min and 148 min.
